From patent US7915276B2, “Berberrubine derivatives having antifungal activities” (priority 2006, dated 2011)

What was measured:
Acute toxicity in mice = format: in vivo, ICR mice; conditions: ICR mouse, male
Method: Each compound was suspended in 1% carboxymethylcellulose (CMC), and orally and abdominally administered to 6-week-old male ICR mice. […] Then, an autopsy was performed on the mice.

[1] = target: T1, chitin synthase 1 of Candida albicans chs2 Δ chs 3 Δ (Candida albicans, UniProt P23316); experiment: In vitro enzyme assay for chitin synthase 1 of Candida albicans (enzyme 1); format: biochemical; conditions: relative to polyoxin D (50% inhibitory activity = value 5)
T1 construct: Crude enzyme was prepared using the Candida albicans chs2 Δ chs 3 Δ mutant; endogenous in cells; host or cells: Candida albicans chs2Δ/chs2Δ chs3Δ/chs3Δ mutant; 130,000 x g membrane pellet
In short: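 Trypsin-activated crude membrane chitin synthase 1 from C. albicans chs2Δ chs3Δ was incubated 90 min at 30 °C with 1.1 mM UDP-[14C]GlcNAc and 2 mM cobalt acetate in Tris-HCl pH 7.5. Filtered TCA precipitate was counted by scintillation; values are scores 1–8 against polyoxin D (5 = same concentration).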

[2] = tested on: Aspergillus terreus ATCC 46941; experiment: In vitro antifungal activity (MIC), NCCLS method; format: cell-based; conditions: 48 hours
In short: (§1)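 Two-fold dilutions, final inoculum 5×10^2–2.5×10^3 cell/mL, NCCLS protocol; 48 h culture for these strains. MIC = minimum inhibitory concentration.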

[3] = tested on: Aspergillus flavus ATCC 64025; experiment: In vitro antifungal activity (MIC), NCCLS method; format: cell-based; conditions: 48 hours
In short: as §1

[4] = tested on: Candida albicans ATCC 10231; experiment: In vitro antifungal activity (MIC), NCCLS method; format: cell-based; conditions: 48 hours
In short: (§2)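 Broth microdilution per NCCLS: two-fold serial dilutions of test compound inoculated with fungal suspension at a final 5×10^2 to 2.5×10^3 cell/mL. Strains other than Cryptococcus neoformans were incubated 48 hours before MIC reading.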

[5] = tested on: Candida glabrata ATCC 48435; experiment: In vitro antifungal activity (MIC), NCCLS method; format: cell-based; conditions: Candida glabrata ATCC 48435; 48 hours
In short: as §2

[6] = tested on: Cryptococcus neoformans ATCC 36556; experiment: In vitro antifungal activity (MIC), NCCLS method; format: cell-based; conditions: RPMI 1640 medium, 72 hours
In short: as §2

[7] = tested on: Candida tropicalis ATCC 13803; experiment: In vitro antifungal activity (MIC), NCCLS method; format: cell-based; conditions: 48 hours
In short: as §2

[8] = tested on: Aspergillus fumigatus ATCC 16424; experiment: In vitro antifungal activity (MIC), NCCLS method; format: cell-based; conditions: 48 hours
In short: as §1

[9] = tested on: Candida parapsilosis ATCC 34136; experiment: In vitro antifungal activity (MIC), NCCLS method; format: cell-based; conditions: Candida parapsilosis ATCC 34136; 48 hours
In short: as §2

[10] = tested on: Candida albicans A207 (clinical isolate); experiment: In vitro antifungal activity (MIC), NCCLS method; format: cell-based; conditions: 48 hours
In short: as §2

Candida krusei ATCC 6258 = experiment: In vitro antifungal activity (MIC), NCCLS method; format: cell-based; conditions: 48 hours
In short: as §2

[11] = tested on: Candida lusitaniae ATCC 42720; experiment: In vitro antifungal activity (MIC), NCCLS method; format: cell-based; conditions: 48 hours
In short: as §2

[12] = tested on: Mucor ramosissimus ATCC 90286; experiment: In vitro antifungal activity (MIC), NCCLS method; format: cell-based; conditions: 48 hours
In short: as §2

[13] = target: T2, chitin synthase 2 of Saccharomyces cerevisiae ECY38-38A(pAS6) (Saccharomyces cerevisiae, UniProt P14180); experiment: In vitro enzyme assay for chitin synthase 2 of Saccharomyces cerevisiae (enzyme 2); format: biochemical; conditions: relative to polyoxin D (50% inhibitory activity = value 5)
T2 construct: made in house; host or cells: Saccharomyces cerevisiae ECY38-38A (chs1-23 chs2::LEU2 cal1/csd2) carrying plasmid pAS6, grown in galactose medium; 130,000 x g membrane pellet
In short: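 Values are scores: 5 means 50% inhibition at the same concentration as polyoxin D, lower scores 2- to 16-fold higher concentration, higher scores ½ to ⅛. Radiolabel from 1.1 mM UDP-[14C]-GlcNAc was incorporated into TCA-insoluble chitin over 90 min at 30 °C (pH 7.5 Tris, 2 mM Co2+). The enzyme was a trypsin-activated membrane fraction from CHS2-only S. cerevisiae ECY38-38A(pAS6).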

human pathogenic fungi = experiment: Antifungal activity against human pathogenic fungi (summary statements); format: cell-based
Text: Candida albicans ATCC 10231, Candida lusitaniae ATCC 42720, Candida krusei ATCC 6258, Candida tropicalis ATCC 13803, Candida glabrata ATCC 48435, Candida parapsilosis ATCC 34136, Cryptococcus neoformans ATCC 36556, Aspergillus fumigatus ATCC 16424, Aspergillus flavus ATCC 64025, Aspergillus terreus ATCC 46941 and Mucor ramosissimus ATCC 90286 strains for the MIC (minimum inhibitory concentration) measurement were obtained from ATCC (American Type Culture Collection) in the U.S. The Candida albicans A207(clinical isolate) strain was used by isolating it from the patients.
The determination of MIC was performed according to the NCCLS (National Committee for Clinical Laboratory Standard) method. Each test sample solution was diluted two-fold and inoculated with a fungal suspension to reach a final inoculum size of 5×10^2 to 2.5×10^3 cell/mL. The Cryptococcus neoformans strain was cultured in the RPMI 1640 medium for 72 hours. Other strains were cultured for 48 hours.

chitin synthases = experiment: Inhibitory activity against the chitin synthases (summary statements); format: biochemical
Text: The inhibitory activities against the chitin synthase 1 of Candida albicans chs2 Δ chs 3 Δ (abbreviated as ‘enzyme 1’) and the chitin synthase 2 of Saccharomyces cerevisiae ECY38-38A(pAS6)(abbreviated as ‘enzyme 2’) was examined for compound Nos. 1 to 70 compound and polyoxin D, a positive control compound.
The inhibitory activity against the chitin synthase 1 prepared from Candida albicans and the chitin synthase 2 prepared from Saccharomyces cerevisiae were examined as follows. A reaction mixture containing 32 mM Tris-HCl (pH 7.5), 2 mM cobalt acetate, 1.1 mM UDP-[U-^14C]-N-acetyl-d-glucosamine (GlcNAc) (400,000 cpm/μmol), 2 μL of trypsin (0.75 mg/mL), 20 μL of each crude enzyme and 14 μL of each test sample was kept at 30° C. for 15 minutes to activate the enzyme. Then, 2 μL of trypsin inhibitor (1.5 mg/mL) was added and the mixture was kept in an ice bath for 10 minutes to deactivate trypsin. 2 μL of 0.8 M N-acetyl-d-glucosamine was added to a total volume of 50 μL and reaction was performed at 30° C. for 90 minutes. The reaction was stopped using 1 mL of 10% TCA solution and the reaction solution was filtered with a GF/C filter and dried at room temperature. After adding 3 mL of a scintillation cocktail solution, the amount of isotopes was measured using a liquid scintillation counter. Percentage inhibition against each enzyme was calculated by the following Equation 1.

T2 sequence (P14180 whole entry): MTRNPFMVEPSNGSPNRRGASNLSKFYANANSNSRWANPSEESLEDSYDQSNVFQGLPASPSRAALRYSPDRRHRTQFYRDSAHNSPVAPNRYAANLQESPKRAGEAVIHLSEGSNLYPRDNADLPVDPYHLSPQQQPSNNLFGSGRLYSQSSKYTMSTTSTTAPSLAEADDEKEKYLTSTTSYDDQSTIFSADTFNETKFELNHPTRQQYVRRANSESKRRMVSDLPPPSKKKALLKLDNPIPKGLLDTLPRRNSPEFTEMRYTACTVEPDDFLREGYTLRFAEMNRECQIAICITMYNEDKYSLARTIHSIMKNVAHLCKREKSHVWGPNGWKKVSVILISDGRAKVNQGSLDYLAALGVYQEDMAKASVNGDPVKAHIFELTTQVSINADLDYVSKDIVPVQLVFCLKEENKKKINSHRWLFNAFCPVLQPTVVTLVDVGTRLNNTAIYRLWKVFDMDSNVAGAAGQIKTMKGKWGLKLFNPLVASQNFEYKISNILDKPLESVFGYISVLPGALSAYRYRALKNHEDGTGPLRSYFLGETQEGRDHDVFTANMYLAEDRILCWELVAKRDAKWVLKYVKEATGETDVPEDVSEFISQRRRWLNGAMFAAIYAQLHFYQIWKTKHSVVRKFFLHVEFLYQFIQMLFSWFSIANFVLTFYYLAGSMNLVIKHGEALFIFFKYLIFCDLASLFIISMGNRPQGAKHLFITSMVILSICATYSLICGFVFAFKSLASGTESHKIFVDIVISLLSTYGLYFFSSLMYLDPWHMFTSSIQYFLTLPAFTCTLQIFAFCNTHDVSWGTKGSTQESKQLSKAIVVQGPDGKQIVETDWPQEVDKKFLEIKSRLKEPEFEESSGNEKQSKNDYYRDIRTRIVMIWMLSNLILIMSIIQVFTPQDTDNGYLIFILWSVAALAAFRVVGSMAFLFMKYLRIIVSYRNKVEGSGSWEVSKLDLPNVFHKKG
T1 sequence (P23316 whole entry, stated change not applied): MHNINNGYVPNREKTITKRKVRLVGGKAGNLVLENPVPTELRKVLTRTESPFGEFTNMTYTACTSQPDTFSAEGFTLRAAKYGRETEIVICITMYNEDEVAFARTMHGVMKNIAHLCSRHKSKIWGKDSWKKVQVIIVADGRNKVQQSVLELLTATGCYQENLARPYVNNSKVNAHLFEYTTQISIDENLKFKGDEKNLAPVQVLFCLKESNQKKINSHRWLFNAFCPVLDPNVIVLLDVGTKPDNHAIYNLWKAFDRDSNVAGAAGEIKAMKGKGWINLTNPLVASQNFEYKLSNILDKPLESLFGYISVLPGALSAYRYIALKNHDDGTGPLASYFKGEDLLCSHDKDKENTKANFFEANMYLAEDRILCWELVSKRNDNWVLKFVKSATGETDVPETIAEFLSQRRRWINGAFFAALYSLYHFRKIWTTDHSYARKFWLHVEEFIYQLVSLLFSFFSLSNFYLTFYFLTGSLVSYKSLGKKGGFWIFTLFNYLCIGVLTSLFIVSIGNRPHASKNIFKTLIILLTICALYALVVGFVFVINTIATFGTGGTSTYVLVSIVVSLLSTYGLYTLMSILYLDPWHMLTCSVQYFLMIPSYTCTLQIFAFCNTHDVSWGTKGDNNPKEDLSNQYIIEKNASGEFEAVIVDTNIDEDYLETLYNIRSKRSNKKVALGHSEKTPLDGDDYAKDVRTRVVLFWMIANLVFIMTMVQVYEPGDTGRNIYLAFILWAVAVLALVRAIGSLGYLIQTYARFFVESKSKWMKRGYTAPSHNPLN

| Substance | Acute toxicity LD50 (Acute toxicity in mice; abdominal) [mg/kg] | Acute toxicity LD50 (Acute toxicity in mice; oral) [mg/kg] | Relative activity Enzyme 1 [1] | MIC (minimum inhibitory concentration) [2] [µg/mL] | MIC (minimum inhibitory concentration) [3] [µg/mL] | MIC (minimum inhibitory concentration) [4] [µg/mL] | MIC (minimum inhibitory concentration) [5] [µg/mL] | MIC (minimum inhibitory concentration) [6] [µg/mL] | MIC (minimum inhibitory concentration) [7] [µg/mL] | MIC (minimum inhibitory concentration) [8] [µg/mL] | MIC (minimum inhibitory concentration) [9] [µg/mL] | MIC (minimum inhibitory concentration) [10] [µg/mL] | MIC (minimum inhibitory concentration) (Candida krusei ATCC 6258) [µg/mL] | MIC (minimum inhibitory concentration) [11] [µg/mL] | MIC (minimum inhibitory concentration) [12] [µg/mL] | Relative activity Enzyme 2 [13] | antifungal activities compared with amphotericin B (in words) (human pathogenic fungi) | inhibitory activities against the chitin synthases (in words) (chitin synthases) |
| --- | --- | --- | --- | --- | --- | --- | --- | --- | --- | --- | --- | --- | --- | --- | --- | --- | --- | --- |
| 13-(4-Isopropylbenzyl)-9-O-butylberberrubine chloride [Compound No. 50] | >15 | >1000 | 4 (Compounds having the inhibitory activity at 2-fold, 4-fold, 8-fold and 16-fold higher concentrations than that of polyoxin D were given the values of 4, 3, 2 and 1, respectively) | 8 | 8 | 0.5 | 4 | 1 | 0.25 | 2 | 4 | 0.5 | 1 | 0.5 | 4 | 7 (compounds having the inhibitory activity at ½, ¼ and ⅛ lower concentrations than that of polyoxin D were given the values of 6, 7 and 8, respectively) | comparable to that of amphotericin B | exceptionally superior inhibitory activities |
| 13-(4-Isopropylbenzyl)-9-O-propylberberrubine iodide [Compound No. 17] | – | – | 4 (Compounds having the inhibitory activity at 2-fold, 4-fold, 8-fold and 16-fold higher concentrations than that of polyoxin D were given the values of 4, 3, 2 and 1, respectively) | 8 | 8 | 1 | 4 | 2 | 0.5 | 4 | 4 | 1 | 2 | 2 | 4 | 7 (compounds having the inhibitory activity at ½, ¼ and ⅛ lower concentrations than that of polyoxin D were given the values of 6, 7 and 8, respectively) | comparable to that of amphotericin B | exceptionally superior inhibitory activities |
| 13-(4-tert-Butylbenzyl)-9-O-butylberberrubine chloride [Compound No. 40] | – | – | 4 (Compounds having the inhibitory activity at 2-fold, 4-fold, 8-fold and 16-fold higher concentrations than that of polyoxin D were given the values of 4, 3, 2 and 1, respectively) | 8 | 8 | 0.5 | 4 | 1 | 0.25 | 2 | 4 | 0.5 | 1 | 0.5 | 4 | 7 (compounds having the inhibitory activity at ½, ¼ and ⅛ lower concentrations than that of polyoxin D were given the values of 6, 7 and 8, respectively) | comparable to that of amphotericin B | exceptionally superior inhibitory activities |
| 13-(4-tert-Butylbenzyl)-9-O-propylberberrubine chloride [Compound No. 39] | – | – | 4 (Compounds having the inhibitory activity at 2-fold, 4-fold, 8-fold and 16-fold higher concentrations than that of polyoxin D were given the values of 4, 3, 2 and 1, respectively) | 8 | 8 | 1 | 4 | 2 | 0.5 | 4 | 4 | 1 | 2 | 1 | 4 | 7 (compounds having the inhibitory activity at ½, ¼ and ⅛ lower concentrations than that of polyoxin D were given the values of 6, 7 and 8, respectively) | comparable to that of amphotericin B | exceptionally superior inhibitory activities |
| 13-(4-tert-Butylbenzyl)-9-O-propylberberrubine iodide [Compound No. 7] | – | – | 4 (Compounds having the inhibitory activity at 2-fold, 4-fold, 8-fold and 16-fold higher concentrations than that of polyoxin D were given the values of 4, 3, 2 and 1, respectively) | 8 | 8 | 1 | 4 | 2 | 0.5 | 4 | 4 | 1 | 2 | 2 | 4 | 7 (compounds having the inhibitory activity at ½, ¼ and ⅛ lower concentrations than that of polyoxin D were given the values of 6, 7 and 8, respectively) | comparable to that of amphotericin B | exceptionally superior inhibitory activities |
